Experimental findings from patent US20220046923A1, “HERBICIDAL CINNOLINIUM COMPOUNDS” (SYNGENTA CROP PROTECTION AG, priority 2018, published 2022) are described below.

Where a name gives a salt, the structure may show the parent alone.

Common to all, as to test: Post-emergence efficacy, glasshouse spray test
Assay type in all cases: in vivo

Test [1] deals with Euphorbia heterophylla (EPHHL). To be noted: Euphorbia heterophylla, post-emergence, 312 h, evaluated after 13 days, read-out: Control of weed species EPHHL after post-emergence application (100=total damage to plant; 0=no damage to plant); for pest or weed control at 1000 g/ha: application rate 1000 g/Ha; for pest or weed control at 500 g/ha: application rate 500 g/Ha. The procedure, abridged:
(§1)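 Compound formulated in acetone/IF50 and diluted into 0.25% or 1% Empicol ESC70 with 1% ammonium sulphate was sprayed on glasshouse seedlings 14 days after sowing. Growth continued at 24/16 °C, 14 h light, 65% humidity with twice-daily watering; damage (0–100) scored on day 13.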

Test [2] has as its system Digitaria sanguinalis (DIGSA). The following applies: Digitaria sanguinalis, post-emergence, 312 h, evaluated after 13 days, read-out: Control of weed species DIGSA after post-emergence application (100=total damage to plant; 0=no damage to plant); for pest or weed control at 1000 g/ha: application rate 1000 g/Ha; for pest or weed control at 500 g/ha: application rate 500 g/Ha. The procedure, abridged:
as §1

For test [3], the system named is Echinochloa crus-galli (ECHCG). To be noted: Echinochloa crus-galli, post-emergence, 312 h, evaluated after 13 days, read-out: Control of weed species ECHCG after post-emergence application (100=total damage to plant; 0=no damage to plant); for pest or weed control at 1000 g/ha: application rate 1000 g/Ha; for pest or weed control at 500 g/ha: application rate 500 g/Ha. Put shortly: as §1

In test [4] the test system is Ipomoea hederacea (IPOHE). To be noted: Ipomoea hederacea, post-emergence, 312 h, evaluated after 13 days, read-out: Control of weed species IPOHE after post-emergence application (100=total damage to plant; 0=no damage to plant); for pest or weed control at 1000 g/ha: application rate 1000 g/Ha; for pest or weed control at 500 g/ha: application rate 500 g/Ha. The procedure, abridged:
as §1

Test [5] relates to Chenopodium album (CHEAL). The following applies: Chenopodium album, post-emergence, 312 h, evaluated after 13 days, read-out: Control of weed species CHEAL after post-emergence application (100=total damage to plant; 0=no damage to plant); for pest or weed control at 1000 g/ha: application rate 1000 g/Ha; for pest or weed control at 500 g/ha: application rate 500 g/Ha. The procedure, abridged: as §1

A further test concerns Lolium perenne (LOLPE). The following applies: Lolium perenne, post-emergence, 312 h, evaluated after 13 days, read-out: Control of weed species LOLPE after post-emergence application (100=total damage to plant; 0=no damage to plant); for pest or weed control at 1000 g/ha: application rate 1000 g/Ha; for pest or weed control at 500 g/ha: application rate 500 g/Ha. Put shortly:
as §1

Another test concerns Eleusine indica (ELEIN). To be noted: Eleusine indica, post-emergence, 312 h, evaluated after 13 days, read-out: Control of weed species ELEIN after post-emergence application (100=total damage to plant; 0=no damage to plant); for pest or weed control at 1000 g/ha: application rate 1000 g/Ha; for pest or weed control at 500 g/ha: application rate 500 g/Ha. Put shortly:
as §1

Test [6] deals with Amaranthus palmeri (AMAPA). The following applies: Amaranthus palmeri, post-emergence, 312 h, evaluated after 13 days, read-out: Control of weed species AMAPA after post-emergence application (100=total damage to plant; 0=no damage to plant); for pest or weed control at 1000 g/ha: application rate 1000 g/Ha; for pest or weed control at 500 g/ha: application rate 500 g/Ha. The procedure, abridged:
as §1

The next test has as its system Setaria faberi (SETFA). To be noted: Setaria faberi, post-emergence, 312 h, evaluated after 13 days, read-out: Control of weed species SETFA after post-emergence application (100=total damage to plant; 0=no damage to plant); for pest or weed control at 1000 g/ha: application rate 1000 g/Ha; for pest or weed control at 500 g/ha: application rate 500 g/Ha. Put shortly:
as §1

As to `Cc1cc(C)c2n[n+](CC(=O)OC(C)C)cc(C)c2c1` [Compound A6, isopropyl 2-(4,6,8-trimethylcinnolin-2-ium-2-yl)acetate chloride], the pest or weed control at 1000 g/ha in test [1] came out at 30%; in test [2], 10%; in test [3] it was 10%; in test [4], 10%; in test [5] it was 20%; with Lolium perenne (LOLPE), 10%. For the same compound, the pest or weed control at 1000 g/ha in the test on Eleusine indica (ELEIN) came out at 30%; in [6] it was 40%; in the test on Setaria faberi (SETFA) it was 10%.
As for `C[C@@H](C[n+]1ccc2ccccc2n1)NS(=O)(=O)[O-]` [Compound A45, N-[(1S)-2-cinnolin-2-ium-2-yl-1-methyl-ethyl]sulfamate], the pest or weed control at 1000 g/ha in test [1] amounted to 100%; in test [2], 80%; in [3], 40%; in [4], 60%; in [5] it was 80%; in the test on Lolium perenne (LOLPE) it was 60%. For the same compound, the pest or weed control at 1000 g/ha in the test with Eleusine indica (ELEIN) came to 100%; in [6], 100%; with Setaria faberi (SETFA), 80%.
`CC(C)(C[n+]1ccc2ccccc2n1)C(=O)O` [Compound A113, 3-cinnolin-2-ium-2-yl-2,2-dimethyl-propanoic Acid 2,2,2-trifluoroacetate]: the pest or weed control at 500 g/ha amounted to 10% in test [1]; 30% in [2]; 40% in test [3]; 10% in test [4]; 10% in test [5]; 20% in the test with Lolium perenne (LOLPE). Moreover, the pest or weed control at 500 g/ha was determined as 30% in the test on Eleusine indica (ELEIN), 10% in [6] and 20% in the test with Setaria faberi (SETFA).
Take `COC(=O)C[n+]1cc(C)c2cc(C)cc(C)c2n1` [Compound A3]: the pest or weed control at 1000 g/ha is 20% in test [1]; 0% in test [2]; 0% in test [3]; 10% in [4]; 10% in test [5]; 20% in the test on Lolium perenne (LOLPE). The pest or weed control at 1000 g/ha in the test with Eleusine indica (ELEIN) stood at 0%; in test [6] it was 20%; in the test on Setaria faberi (SETFA), 10%.
As for `CS(=O)(=O)NC(=O)C[n+]1ccc2ccccc2n1` [Compound A15, 2-cinnolin-2-ium-2-yl-N-methylsulfonyl-acetamide bromide], the pest or weed control at 1000 g/ha turned out to be 90% in test [1]; 70% in test [2]; 40% in test [3]; 80% in test [4]; 80% in test [5]; 60% in the test on Lolium perenne (LOLPE). In addition, the pest or weed control at 1000 g/ha with Eleusine indica (ELEIN) was 80%; in [6], 90%; in the test with Setaria faberi (SETFA), 60%.
In the case of `O=S(=O)([O-])CC[n+]1cc(-c2ccccc2)c2ccccc2n1` [Compound A51], the pest or weed control at 1000 g/ha in test [1] was determined as 60%; in [2] it was 40%; in [3] it was 20%; in test [4], 30%; in [5], 30%; with Lolium perenne (LOLPE), 10%. Besides, the pest or weed control at 1000 g/ha with Eleusine indica (ELEIN) is 30%; in test [6], 90%; in the test with Setaria faberi (SETFA), 30%.
For `O=S(=O)([O-])OC[n+]1ccc2ccccc2n1` [Compound A31, cinnolin-2-ium-2-ylmethyl hydrogen sulfate], the pest or weed control at 1000 g/ha in test [1] came out at 30%; in test [2], 0%; in test [3], 0%; in test [4] it was 30%; in test [5], 20%; in the test on Lolium perenne (LOLPE), 0%. Also, the pest or weed control at 1000 g/ha with Eleusine indica (ELEIN) is 0%; in [6], 30%; in the test with Setaria faberi (SETFA), 0%.
Turning to `O=S(=O)([O-])CCC[n+]1cc(C(Cl)(Cl)Cl)c2ccccc2n1` [Compound A40], the pest or weed control at 500 g/ha in test [1] was 40%; in test [2], 10%; in test [3], 30%; in test [4], 50%; in test [5], 50%; in the test with Lolium perenne (LOLPE), 0%. Also, the values for the pest or weed control at 500 g/ha (with Eleusine indica (ELEIN); in [6]; in the test on Setaria faberi (SETFA)) were 20%, 50% and 0%, respectively.
As to `O=S(=O)([O-])CC[n+]1ccc2ccccc2n1` [Compound A24, 2-cinnolin-2-ium-2-ylethanesulfonate], the pest or weed control at 1000 g/ha was determined as 70% in [1]; 80% in [2]; 40% in test [3]; 80% in test [4]; 60% in [5]; 40% in the test on Lolium perenne (LOLPE). The pest or weed control at 1000 g/ha in the test on Eleusine indica (ELEIN) worked out at 80%; in test [6] it was 60%; in the test with Setaria faberi (SETFA), 60%.
As for `O=S(=O)([O-])CC[n+]1ccc2c(Cl)cccc2n1` [Compound A96], the pest or weed control at 1000 g/ha in [1] stood at 100%; in test [2], 60%; in test [3], 40%; in [4], 20%; in [5], 100%; with Lolium perenne (LOLPE), 40%. In addition, the pest or weed control at 1000 g/ha is 60% with Eleusine indica (ELEIN), 70% in [6] and 30% with Setaria faberi (SETFA).
Consider `CC#Cc1c[n+](CCOS(=O)(=O)[O-])nc2ccccc12` [Compound A54, 2-(4-prop-1-ynylcinnolin-2-ium-2-yl)ethyl sulfate], for which the pest or weed control at 1000 g/ha in test [1] came out at 30%; in test [2] it was 30%; in test [3] it was 10%; in test [4] it was 10%; in test [5] it was 40%; with Lolium perenne (LOLPE), 10%. For the same compound, the pest or weed control at 1000 g/ha with Eleusine indica (ELEIN) stood at 30%; in test [6], 30%; in the test on Setaria faberi (SETFA), 20%.
